Experimental data published in patent US20100029724A1, “SCREENING METHOD” (Takeda Pharmaceutical Company Limited, priority 2006, published 2010).

Experiments:
[1] = biological target: T1, human recombinant ferrochelatase (Homo sapiens, UniProt P22830); assay: Measurement of ferrochelatase activity (zinc-protoporphyrin IX production, fluorescence); format: biochemical; details: compound 3 μM, mean±SD, n=8, control group 0.377 ± 0.010
T1 construct: attached to the N terminal of the human FeCh Mature region (55th-423rd amino acid residues); Nus-Tag (N, cleaved yes); His-Tag (N, cleaved yes); made in house; host or cells: Escherichia coli BL21 (DE3)
T1 sequence (P22830 55-423): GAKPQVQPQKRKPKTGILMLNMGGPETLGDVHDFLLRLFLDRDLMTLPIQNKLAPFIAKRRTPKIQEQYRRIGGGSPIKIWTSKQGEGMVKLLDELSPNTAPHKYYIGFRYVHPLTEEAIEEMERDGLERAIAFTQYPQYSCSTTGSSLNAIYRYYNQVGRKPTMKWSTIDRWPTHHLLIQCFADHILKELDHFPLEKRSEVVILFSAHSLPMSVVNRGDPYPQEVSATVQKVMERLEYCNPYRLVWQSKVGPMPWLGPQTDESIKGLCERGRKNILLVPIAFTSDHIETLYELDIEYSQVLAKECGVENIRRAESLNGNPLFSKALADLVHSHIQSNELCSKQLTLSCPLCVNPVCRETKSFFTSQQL
Method: Using human FeCh gene (Invitrogen) as a template, PCR was performed using the following primer 1 (SEQ ID NO: 3) and primer 2 (SEQ ID NO: 4). Pyrobest DNA polymerase (TAKARA SHUZO CO., LTD.) was used for the PCR, and extension reactions were performed under the conditions of (1) 95° C. 1 min, then (2) 30 cycles of 96° C. 15 sec, 60° C. 30 sec, 72° C. 90 sec, then (3) 72° C. for 7 min. After the reaction, the amplification product was inserted into pCR-Blunt II-TOPO (Invitrogen) and cloned. The obtained plasmid was digested with Bgl II and Xho I to recover inserted fragments. The fragments were inserted into the Bam HI/Xho I site of pET43.1a (Novagen) to give an expression vector pET43.1a-hFeCh encoding a protein with Nus-Tag and His-Tag attached to the N terminal of the human FeCh Mature region (55th-423rd amino acid residues).
The expression vector pET43.1a-hFeCh constructed in the above-mentioned A1 was introduced into Escherichia coli BL21 (DE3) Competent Cell (Stratagene) to give an expression strain. […]
The cells obtained in the above-mentioned A2 were suspended in Blue column Buffer (10 mM Tris-HCl (pH 8.1), 0.5 M NaCl, 10% Glycerol, 1% Triton X-100, 5 mM 2-Mercaptoethanol (2-ME), 250 ml) containing Protease Cocktail (Complete, EDTA-free; Roche). […] As a result of protein quantification (CBB method; Pierce), the total protein amount of about 8 mg of human FeCh was obtained. […]

[2] = test system: cytochrome c oxidase activity of high glucose-treated HepG2 cell; assay: Cytochrome c oxidase activity in high glucose treated HepG2 cell; format: cell-based, human; details: compound 3 μM, 3 days, high glucose (4.5 g/L) HepG2, mean±SD, n=4
Method: (1) Human liver cancer cell-derived cell line HepG2 was passaged in low glucose (1 g/L) Eagle Modified Dulbecco's Medium supplemented with 10% fetal bovine serum. The cells adjusted to 3×10^5/mL using the same medium were plated on a 96 well plate and precultured overnight. The aforementioned medium was changed to high glucose (4.5 g/L) Eagle Modified Dulbecco's Medium supplemented with 5 μg/mL transferrin, compound (a) or compound (l) was added and the cell culture was continued for 3 days. The same experiment was performed without using compound (a) and compound (l) as the control group. […] (3) The DNA content was measured using PicoGreen dsDNA Quantitation Kit (Molecular Probes P-7589), and used as an index of cell number. The cytochrome c oxidase activity was determined using the Cytochrome c oxidase Assay kit (Sigma CYTOC-OX1) modified to fit a 96 well plate protocol. […] The time-course changes in the absorbance were measured by determining the absorbance at 550 nm at a delta soft kinetic mode once in 15 sec for 6 min from immediately after the start of the reaction. The cytochrome c oxidase activity was calculated as an absorbance change rate in 5 min from 1 to 6 min. […]

ZDF rats = assay: Evaluation of anti-diabetic action in ZDF rat (blood glucose level); format: in vivo; details: male ZDF rat at 16 weeks of age; mixed diet 0.03% compound from 8 weeks of age (dose 20.9 mg/kg body weight); mean±SD; control group 652.8±23.10
Method: Male ZDF rats (5-week-old, Charles River Japan) were reared while allowing free-feeding of both diet and water. As the feed, a standard laboratory diet (MF; Oriental Yeast Co, Tokyo, Japan) and a mixed diet (the aforementioned standard laboratory diet containing 0.03% of compound (a)) were used. After acclimation rearing for 1 week, the body weight and glycated hemoglobin were measured, and the ZDF rats were divided into 2 groups (8 rats/group) such that the measurement values became uniform at 8 weeks of age. For the control group, the aforementioned standard laboratory diet was given, and for the compound (a) administration group, the aforementioned mixed diet was given from 8 weeks of age to 19 weeks of age.
At 16 weeks of age, the food intake in 24 hr was measured. The rats were reared at 4 rats/cage, the total amount of decrease in the diet in a can set to each cage was divided by 4 and taken as the daily food intake per rat. In addition, the dose of compound (a) was calculated from the food intake and the content of compound (a) in the mixed diet.
At 16 weeks of age, moreover, the blood was drawn from the rat tail vein using heparin as an anticoagulant. The blood sample was preserved on ice, and the plasma after centrifugation was preserved at −20° C. until measurement. The blood glucose level was measured by a biochemical automatic analyzer (Beckman Coulter, Shyncron CX5Δ).

Crj: CD(SD)IGS rats = assay: Evaluation of hemoglobin increasing action; format: in vivo, rat; details: female Crj: CD(SD)IGS rats, 600 mg/kg/day oral, 4 weeks, mean±SD
Method: (1) After acclimation rearing for 1 week, female Crj: CD(SD)IGS rats (5-week-old) were divided into 2 groups (10 rats/group). (2) For one group, a suspension of compound (a), obtained by suspending compound (a) in 0.5% aqueous methylcellulose solution, was orally administered at 10 ml/kg body weight/day (dose of compound (a): 600 mg/kg body weight/day) once a day. For the other group, 0.5% aqueous methylcellulose solution was orally administered at 10 ml/kg body weight/day in the same manner, and used as the control group. (3) After 4-week administration under free-feeding conditions, the rats were fasted for 20 hr, and the whole blood was collected from the abdominal artery into a blood collection vessel (SP-U0501EM, Sekisui Chemical), and the red blood cell count, hematocrit, hemoglobin concentration, and MCH (average red blood cell hemoglobin) of the rat blood were measured. The numerical values in the Table show mean±standard deviation.

Wistar Fatty rats = assay: Evaluation of anti-diabetic action in Wistar Fatty rats (glycosylated hemoglobin); format: in vivo, rat; details: male Wistar Fatty rats, mean±SD, n=5-6
Method: Lean rats in the same lot as the male Wistar Fatty rats (26 to 27-week-old; TAKEDA RABICS, lot0402) were used. Blood samples were collected from Wistar Fatty rats in the morning under non-fasting, and glycosylated hemoglobin % value (GHB %) and plasma component were measured. GHB % was measured by Tosoh automatic glycohemoglobin analyzer HLC-723 GHbV Alc2.2. The Plasma component was measured by Beckman Synchron system CX5 delta. The rats showing a GHB % value of not less than 7.5% and a high PG value were divided into 2 groups. For one group, a suspension of compound (1), obtained by suspending compound (l) in 0.5% aqueous methylcellulose solution, (dose of compound (l): 10 mg/kg body weight) was orally administered repeatedly once a day for 20 days. For the other group, 0.5% aqueous methylcellulose solution was orally administered in the same manner, and used as the control group. On the day of completion of the administration, the blood samples were collected again, and GHB % was measured. The numerical values in the Table show mean±standard deviation of n=5-6 (n is the number of rats).

SMILES	ferrochelatase activity [1] [Em 590 nm]	Cytochrome c oxidase activity ([2]; Table 5, control group 0.649 ± 0.044) [units/μg DNA]	blood glucose level (ZDF rats) [mg/dL]	hemoglobin (Crj: CD(SD)IGS rats; control group 15.3 ± 0.4) [g/dL]	MCH (average red blood cell hemoglobin) (Crj: CD(SD)IGS rats; control group 19.6 ± 0.4) [pg]	hematocrit (Crj: CD(SD)IGS rats; control group 42.5 ± 1.1) [%]	red blood cell count (Crj: CD(SD)IGS rats; control group 777 ± 21)	Cytochrome c oxidase activity ([2]; Table 6, control group 0.743 ± 0.043)	Glycosylated hemoglobin value, after drug administration (Wistar Fatty rats; 10 mg/kg oral once a day for 20 days, control group 7.7 ± 0.2) [%]	Glycosylated hemoglobin value, amount of change (Wistar Fatty rats; 10 mg/kg oral once a day for 20 days, control group −0.5 ± 0.2) [%]	Glycosylated hemoglobin value, before drug administration (Wistar Fatty rats; baseline before 10 mg/kg oral once a day for 20 days) [%]
CCOP(=O)(OCC)OCc1ccc(NC(=O)/C=C/c2cnn(C)c2-c2ccc(F)cc2)cc1 [compound (a), diethyl [4-({(2E)-3-[5-(4-fluorophenyl)-1-methyl-1H-pyrazol-4-yl]prop-2-enoyl}amino)benzyl]phosphate]	0.609 ± 0.008	0.757 ± 0.029	271.7 ± 36.5	16.1 ± 0.7	20.7 ± 0.5	44.7 ± 1.9	779 ± 32 ×10^4/μl				
Cn1ncc(/C=C/C(=O)Nc2ccc(CCc3nnco3)cc2)c1-c1ccc(F)cc1 [compound (l), (2E)-3-[5-(4-fluorophenyl)-1-methyl-1H-pyrazol-4-yl]-N-{4-[2-(1,3,4-oxadiazol-2-yl)ethyl]phenyl}acrylamide]	0.655 ± 0.009							0.990 ± 0.088 units/(μg DNA	6.9 ± 0.4	−1.3 ± 0.3	8.2 ± 0.5
